The text below walks through data of PMC5915280, “Improvement of kynurenine aminotransferase-II inhibitors guided by mimicking sulfate esters” (PLoS ONE, 2018).

This test deals with T1, KAT-II (kynurenine aminotransferase-II) (Homo sapiens, UniProt Q8N5Z0).
T1 construct: gene AADAT; recombinant KAT-II with a hexa-histidine tag, expressed in E. coli Rosetta 2
Description: HPLC assay of kynurenic acid formation with purified recombinant enzyme. The class given is biochemical.

As usually defined, the IC50 is the concentration that inhibits the measured activity by half.

T1 sequence (Q8N5Z0 30-425): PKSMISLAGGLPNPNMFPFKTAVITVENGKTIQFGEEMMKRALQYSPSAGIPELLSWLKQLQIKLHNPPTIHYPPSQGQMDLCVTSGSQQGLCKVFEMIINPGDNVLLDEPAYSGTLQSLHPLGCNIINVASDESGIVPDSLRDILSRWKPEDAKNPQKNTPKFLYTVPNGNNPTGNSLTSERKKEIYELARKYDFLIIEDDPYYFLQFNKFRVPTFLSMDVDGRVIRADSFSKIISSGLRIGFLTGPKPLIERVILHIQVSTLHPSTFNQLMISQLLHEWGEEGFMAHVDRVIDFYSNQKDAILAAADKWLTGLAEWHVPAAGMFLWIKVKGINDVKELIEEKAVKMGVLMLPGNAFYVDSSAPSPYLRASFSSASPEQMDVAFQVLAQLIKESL

As to `NS(=O)(=O)c1ccc(N2C(=O)c3cc(Cl)c(Cl)cc3C2=O)cc1` [JN-01, 4-(5,6-dichloro-1,3-dioxo-1,3-dihydro-2H-isoindol-2-yl)benzenesulfonamide], the concentration for half-maximal inhibition (IC50) was 73.8 µM.

Consider `NS(=O)(=O)c1ccc(CCN2C(=O)c3cc(Cl)c(Cl)cc3C2=O)cc1` [JN-02, 4-(5,6-dichloro-1,3-dioxo-1,3-dihydro-2H-isoindol-2-yl)ethyl benzenesulfonamide], for which the IC50 is 113 µM.
